In article PMC10699557, “A recombinant approach for stapled peptide discovery yields inhibitors of the RAD51 recombinase” (Chemical Science, 2023):
Where two headings read alike, the source gives them in different places. Numbered stars: 1 amine (or outer) side, 2 acyl side, 3 side chain; on linkers, the order of the positions; unused ones are H or OH. Bridge positions count the residues as written; N and C are the ends. Ends that are not written are not given here. Peptide text beside a SMILES is read from it. X2 = CN(CC(=O)O)c1nc(CC[*:1])nc(CC[*:2])n1; X1 = Nc1nc(CC[*:1])cc(CC[*:2])n1

How the values were obtained:
[1] = target: HumRadA22 (Pyrococcus furiosus, UniProt O74036); experiment: Isothermal titration calorimetry (ITC) of peptide binding; design: species or system archaeal RadA mutant with human Rad51 surface residues; conditions: read-out: ITC KD; free peptides; 20 mM CHES pH 9.5, 150 mM NaCl, 0.1% Tween-20; 25°C; single-site binding model
Procedure: We then evaluated the binding of free peptides to HumRadA22 using FP competition assay and isothermal titration calorimetry (Table 1 and Fig. 3B and C). […] All three peptides SP2, SP24 and SP30 bound with similar low-nanomolar affinities in ITC, and the binding appears to be slightly weaker relative to the linear BRC8-2 template (Fig. 3C).
(§1) Isothermal titration calorimetry
(§2) Peptides were resuspended in MilliQ water to 10 times the desired final concentration.
This was then diluted 10x with the ITC buffer to obtain the final titrant solution (20 mM CHES pH 9.5, 150 mM NaCl, 0.1% Tween-20). HumRadA22 was buffer-exchanged on a NAP-5 desalting column (Cytiva) into ITC buffer and protein concentration was adjusted to 10:9 of the desired final value. […]
(§3) Dried peptides were dissolved in MilliQ water to 0.3 mg/ml, and then two-fold diluted in 20 mM sodium phosphate, pH 7.4, giving a final solution of 0.15 mg/ml peptide in 10 mM sodium phosphate. CD spectra of selected peptides were recorded on an AVIV 410 circular dichroism spectropolarimeter using a 1 mm path length quartz cuvette. […]
(§4) The ability of linear and stapled BRC repeat peptides to dissociate RAD51-ssDNA nucleofilament was evaluated using an electrophoretic mobility shift assay (EMSA). […]

[2] = system: RAD51:dT60 nucleoprotein filament (full-length human RAD51); experiment: Electrophoretic mobility shift assay (EMSA) of nucleoprotein filament disruption; type: biochemical; conditions: 5 μM full-length human RAD51, 100 nM FAM-dT60, varying peptide concentrations; 50 mM HEPES pH 7.4, 1 mM ATP
Procedure: We evaluated the effect of stapled peptides SP2, SP24 and SP30 on the nucleoprotein filament using electrophoretic mobility shift assay (EMSA, Fig. 3D). A fluorescently labelled dT60 oligonucleotide was incubated with full-length RAD51, after which the peptides were added at different concentrations before separating the products on a polyacrylamide gel.
as §1, §2
This was then diluted 10x with the ITC buffer to obtain the final titrant solution (20 mM CHES pH 9.5, 150 mM NaCl, 0.1% Tween-20). HumRadA22 was buffer-exchanged on a NAP-5 desalting column (Cytiva) into ITC buffer and protein concentration was adjusted to 10:9 of the desired final value. One ninth volume of MilliQ water was added to the solution to bring the protein concentration to the desired final value, while maintaining identical buffer:MilliQ volume proportions in both the syringe and the cell. ITC was carried out using a Microcal ITC200 or Malvern PEAQ ITC instruments at 25°C with a 5.00 μCal reference power DP value, stirring speed of 500-750 rpm, 2 sec filter period. Injection spacing, speed and volume, cell/syringe concentrations as well as the number of injections were adjusted for each peptide and its binding properties. ITC data were fitted using a single-site binding model using the Microcal ITC data analysis program in the Origin 7.0 package. Data points affected by baseline spikes were omitted from the analysis.
Circular dichroism spectroscopy
as §3, §4

[3] = target: monomeric version of RAD51 (HumRadA22) (Pyrococcus furiosus, UniProt O74036); experiment: Fluorescence polarisation (FP) competition assay: displacement of fluorescein-labelled BRC4 repeat; type: binding, archaeal RadA mutant with human Rad51 surface residues; conditions: 100 nM HumRadA22, 10 nM BRC4-fluorescein, KD calculated from IC50, single titration, three technical replicates per point
Source text: We prepared all stapled peptides from small-scale bacterial cultures as GB1/C-His8 fusions and cyclised them with the DVT linker. For peptides SP10, SP11, SP12 and SP15, correct stapling was confirmed by MS, showing a similar composition to SP2 (Fig. S15–S18 ^†). Thus, we confirm that the pseudo-dilution approach is robust in yielding almost exclusively the cyclised product, irrespective of whether a helical or non-helical motif is being constrained. To examine the effect of introducing a covalent staple on affinity, a mock reaction was done in parallel for each peptide by splitting the IMAC elution into two halves and adding DMSO to the mock control instead of the linker. TCEP (500 μM) was included in the mock reaction to maintain the peptide in linear form by preventing disulfide formation. The peptides were tested in a fluorescence polarisation (FP) assay monitoring the displacement of a fluorescently-labelled BRC4 repeat from a monomeric version of RAD51 (HumRadA22), as reported previously.[25] […]
Fluorescence polarisation competition assay
FP competition assay was a modified version of a protocol described previously. Fluorescein-labelled HsBRC4 probe for this assay was kindly provided by Dr Laurens Lindenburg (Hollfelder group, Department of Biochemistry, University of Cambridge). Black 384-well flat-bottom microplates (Corning, 3821) were used with a 40 μl final reaction volume in all measurements. Following buffer conditions were used: 20 mM CHES pH 9.5, 150 mM NaCl, 0.1% BSA, 0.1% Tween-20. Each reaction contained 100 nM HumRadA22 and 10 nM BRC4-fluorescein. Two-fold serial dilutions of stapled peptides were added to the reactions. A free probe control reaction containing only 10 nM BRC4-fluorescein was used to calibrate gain and focal height. FP measurements were performed on Pherastar FX or Clariostar Plus (BMG Labtech) plate readers equipped with an FP 485-520-520 optic modules. Binding curves were fitted using the four-parameter logistic model with a variable Hill slope using Prism software (Graphpad). Regression fitting was performed using the least squares optimisation algorithm.
KD values were estimated from the fitted IC 50 parameters using a previously reported

[4] = stapled product (linker DVT or DVP as in Table 1), 20 mM CHES pH 9.5, 150 mM NaCl, 0.1% BSA, 0.1% Tween-20, read-out: FP competition KD, nM, Stapled
[5] = unstapled linear form, mock reaction with DMSO instead of linker plus TCEP, 20 mM CHES pH 9.5, read-out: FP competition KD, nM, Unstapled

Row | Compound | Kd [1] [nM] | Depolymerisation of RAD51 from single-stranded DNA (EMSA) [2] | Kd ([3]; read-out: FP competition KD, nM, Stapled, stapled product (linker DVT or DVP as in Table 1), 20 mM CHES pH 9.5, 150 mM NaCl, 0.1% BSA, 0.1% Tween-20) [nM] | Kd [3, 4] [nM] | Kd [3, 5] [nM]
1 | CC(C)C[C@@H]1NC(=O)[C@H](C)NC(=O)[C@H](CCC(N)=O)NC(=O)[C@@H](NC(=O)[C@H](CO)NC(=O)[C@@H](NC(=O)[C@H](CC(N)=O)NC(=O)[C@H](CC(C)C)NC(=O)[C@H](CCCCN)NC(=O)[C@H](CCCCN)NC(=O)CNC(=O)[C@H](CO)NC(=O)[C@H](C)NC(=O)[C@@H](NC(=O)[C@H](CO)NC(=O)[C@H](Cc2ccccc2)NC(=O)CNC(=O)[C@H](CO)NC(=O)CN)[C@@H](C)O)C(C)C)CSCCc2cc(nc(N)n2)CCSC[C@@H](C(=O)N[C@@H](CCCCN)C(=O)N[C@@H](CC(C)C)C(=O)N[C@@H](Cc2ccccc2)C(=O)N[C@@H](CO)C(=O)NCC(=O)O)NC(=O)[C@H](C)NC(=O)[C@H](CCCCN)NC(=O)[C@H](CCC(N)=O)NC1=O [SP24] (H-GSGFSTASGKKLNVSCQALQKACKLFSG-OH; linker 16-23 via X1) | 21 | depolymerise RAD51 from single-stranded DNA to similar extent | 13 |  | 
2 | ACGFSTASGKKLNVSCEALQKAVKLFSDIENIS (also: sidechain bridge or staple (positions not given here)) [GB1-SP10, GB1/C-His8 fusion peptide stapled with DVT; unstapled column is its linear mock control] |  |  |  | 27 | 35
3 | ACSGFSTASGKKLNCS (also: sidechain bridge or staple (positions not given here)) [GB1-SP16, GB1/C-His8 fusion peptide stapled with DVT; unstapled column is its linear mock control] |  |  |  | > 500 | > 500
4 | H-GSVNSSAFSGFSTASGKKLNVSCEALQKACKLFSDIENISGSS-OH (linker 23-30 via X2) [SP2] |  | depolymerise RAD51 from single-stranded DNA to similar extent |  |  | 
5 | SCEALQKACKLFSDIENIS (also: sidechain bridge or staple (positions not given here)) [GB1-SP1, GB1/C-His8 fusion peptide stapled with DVT; unstapled column is its linear mock control] |  |  |  | > 500 | > 500
6 | SCFSTASGKKLNVSCEALQKAVKLFSDIENIS (also: sidechain bridge or staple (positions not given here)) [GB1-SP11, GB1/C-His8 fusion peptide stapled with DVT; unstapled column is its linear mock control] |  |  |  | 36 | 29
7 | SSACSGFSTASGKKLNVSTEACQKAVKLFSDIENIS (also: sidechain bridge or staple (positions not given here)) [GB1-SP12, GB1/C-His8 fusion peptide stapled with DVT; unstapled column is its linear mock control] |  |  |  | 14 | 50
8 | VNCSAFSGFSTASGKKLCVS (also: sidechain bridge or staple (positions not given here)) [GB1-SP14, GB1/C-His8 fusion peptide stapled with DVT; unstapled column is its linear mock control] |  |  |  | > 500 | > 500
9 | VNCSAFSGFSTASGKKLNVSTEALCKAVKLFSDIENIS (also: sidechain bridge or staple (positions not given here)) [GB1-SP13, GB1/C-His8 fusion peptide stapled with DVT; unstapled column is its linear mock control] |  |  |  | 28 | 21
10 | VNSSAFSGFCTASGKKLNVSCEALQKAVKLFSDIENIS (also: sidechain bridge or staple (positions not given here)) [GB1-SP7, negative control GB1/C-His8 fusion peptide stapled with DVT; unstapled column is its linear mock control] |  |  |  |  | 39
11 | VNSSAFSGFSTASGKKLNVSCEALQKACKLFSDIECIS (also: sidechain bridge or staple (positions not given here)) [GB1-SP15, GB1/C-His8 fusion peptide stapled with DVT; unstapled column is its linear mock control] |  |  |  | 13 | 15
12 | VNSSAFSGFSTASGKKLNVSCEALQKACKLFSDIENIS (also: sidechain bridge or staple (positions not given here)) [GB1-SP2, GB1/C-His8 fusion peptide stapled with DVT; unstapled column is its linear mock control] |  |  |  | 15 | 6
13 | VNSSAFSGFSTASGKKLNVSTCALQKAVCLFSDIENIS (also: sidechain bridge or staple (positions not given here)) [GB1-SP8, GB1/C-His8 fusion peptide stapled with DVT; unstapled column is its linear mock control] |  |  |  | 29 | 45
14 | VNSSAFSGFSTASGKKLNVSTEALCKAVKLFCDIENIS (also: sidechain bridge or staple (positions not given here)) [GB1-SP9, GB1/C-His8 fusion peptide stapled with DVT; unstapled column is its linear mock control] |  |  |  | 51 | 57
15 | VNSSAFSGFSTASGKKLNVSTEALQKAVKLFSDIENIS [GB1-BRC8-2, linear BRC8-2 template as GB1/C-His8 fusion] |  |  |  |  | 11
